Results published in patent publication US11166959B2, “Isofuranone compounds useful as HPK1 inhibitors” (BRISTOL-MYERS SQUIBB COMPANY, priority 2017, dated 2021).

How the values were obtained:
HPK1 = biological target: T1, HPK1 (Homo sapiens, UniProt Q92918); experiment: HPK1 Inhibition Assay (kinase reaction, Caliper capillary electrophoresis); assay type: biochemical; conditions: for IC50: 0.625 nM HPK1, 22 μM ATP, 11 concentrations, read-out: HPK1 IC50; for IRAK4/HPK1 Ratio: ratio of the IRAK4 IC50 value to the HPK1 IC50 value
T1 construct: purchased SignalChem M23-11G
T1 sequence (Q92918 1-346 limits assumed): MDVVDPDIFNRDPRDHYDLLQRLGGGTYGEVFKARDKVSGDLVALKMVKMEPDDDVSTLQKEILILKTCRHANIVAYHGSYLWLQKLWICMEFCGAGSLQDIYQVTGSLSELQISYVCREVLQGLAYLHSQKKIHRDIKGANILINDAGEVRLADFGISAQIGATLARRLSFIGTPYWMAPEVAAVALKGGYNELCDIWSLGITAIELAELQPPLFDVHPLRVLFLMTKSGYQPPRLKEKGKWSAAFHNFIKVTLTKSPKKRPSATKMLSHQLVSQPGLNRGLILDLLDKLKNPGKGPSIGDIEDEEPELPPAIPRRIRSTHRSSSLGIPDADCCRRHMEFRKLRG
Outline: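 Kinase reactions ran 3 h and were stopped with 1 mM EDTA, with enzyme level and time set for at most 20-30% peptide substrate conversion. Phosphorylated and unphosphorylated peptide were separated by capillary electrophoresis to measure conversion. IC50 derived from 11 compound concentrations.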

IRAK4 = biological target: T2, IRAK4 (Homo sapiens, UniProt Q9NWZ3); experiment: IRAK4 Inhibition Assay (kinase reaction, Caliper capillary electrophoresis); assay type: biochemical; conditions: 500 μM ATP, 11 concentrations
T2 construct: 1 nM IRAK4 (160-460); purchased SignalChem M24016
T2 sequence (Q9NWZ3 160-460): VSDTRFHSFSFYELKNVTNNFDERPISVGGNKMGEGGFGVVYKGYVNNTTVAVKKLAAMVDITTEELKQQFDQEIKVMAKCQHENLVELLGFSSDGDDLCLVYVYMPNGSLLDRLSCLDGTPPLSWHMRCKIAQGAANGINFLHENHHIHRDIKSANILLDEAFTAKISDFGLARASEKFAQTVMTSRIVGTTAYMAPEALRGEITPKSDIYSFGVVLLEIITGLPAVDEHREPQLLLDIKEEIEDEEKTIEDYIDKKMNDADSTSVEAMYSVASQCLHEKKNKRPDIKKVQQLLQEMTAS

IC50 (HPK1) [µM] | IRAK4/HPK1 Ratio (HPK1) | IC50 (IRAK4) [µM] | SMILES
< 0.05 | C (C=>50) | 0.25 to 1 | CCCCc1noc(-c2cnc(Nc3ccc4c(c3)C(C)(C)OC4=O)nc2N[C@H](CO)c2ccccc2)n1 [Example 36, 5-{[5-(3-butyl-1,2,4-oxadiazol-5-yl)-4-{[(1S)-2-hydroxy-1-phenylethyl]amino}pyrimidin-2-yl]amino}-3,3-dimethyl-1,3-dihydro-2-benzofuran-1-one]
< 0.05 | B (B=10 to 50) | 0.25 to 1 | Cc1cnc(CNC(=O)c2cnc(Nc3ccc4c(c3)C(C)(C)OC4=O)nc2N[C@H](CO)c2ccccc2)cn1 [Example 20, 2-[(3,3-dimethyl-1-oxo-1,3-dihydro-2-benzofuran-5-yl)amino]-4-{[(1S)-2-hydroxy-1-phenylethyl]amino}-N-[(5-methylpyrazin-2-yl)methyl]pyrimidine-5-carboxamide]
< 0.05 | B (B=10 to 50) | 0.25 to 1 | CN(C)CCNC(=O)c1cnc(Nc2ccc3c(c2)C(C)(C)OC3=O)nc1N[C@H](CO)c1ccccc1 [Example 9, 2-[(3,3-dimethyl-1-oxo-1,3-dihydro-2-benzofuran-5-yl)amino]-N-[2-(dimethylamino)ethyl]-4-{[(1S)-2-hydroxy-1-phenylethyl]amino}pyrimidine-5-carboxamide]
< 0.05 | C (C=>50) | 0.25 to 1 | CC1(C)OC(=O)c2ccc(Nc3ncc(-c4nc(C56CC(N)(C5)C6)no4)c(N[C@H](CO)c4ccccc4)n3)cc21 [Example 47, 5-{[5-(3-{3-aminobicyclo[1.1.1]pentan-1-yl}-1,2,4-oxadiazol-5-yl)-4-{[(1S)-2-hydroxy-1-phenylethyl]amino}pyrimidin-2-yl]amino}-3,3-dimethyl-1,3-dihydro-2-benzofuran-1-one]
< 0.05 | B (B=10 to 50) | 0.25 to 1 | CC1(CNC(=O)c2cnc(Nc3ccc4c(c3)C(C)(C)OC4=O)nc2N[C@H](CO)c2ccccc2)COC1 [Example 23, 2-[(3,3-dimethyl-1-oxo-1,3-dihydro-2-benzofuran-5-yl)amino]-4-{[(1S)-2-hydroxy-1-phenylethyl]amino}-N-[(3-methyloxetan-3-yl)methyl]pyrimidine-5-carboxamide]
< 0.05 | C (C=>50) | 0.25 to 1 | CCn1nc(-c2cnc(Nc3ccc4c(c3)C(C)(C)OC4=O)nc2N[C@H](CO)c2ccccc2)oc1=O [Example 53, 5-{2-[(3,3-dimethyl-1-oxo-1,3-dihydro-2-benzofuran-5-yl)amino]-4-{[(1S)-2-hydroxy-1-phenylethyl]amino}pyrimidin-5-yl}-3-ethyl-2,3-dihydro-1,3,4-oxadiazol-2-one]
< 0.05 | C (C=>50) | 0.25 to 1 | CC1(C)OC(=O)c2ccc(Nc3ncc(C(=O)NC4CCN(Cc5ccccc5)C4)c(N[C@H](CO)c4ccccc4)n3)cc21 (stereo partly drawn) [Example 22, N-(1-benzylpyrrolidin-3-yl)-2-[(3,3-dimethyl-1-oxo-1,3-dihydro-2-benzofuran-5-yl)amino]-4-{[(1S)-2-hydroxy-1-phenylethyl]amino}pyrimidine-5-carboxamide]

Second part, the compound before the results:

SMILES | IC50 (HPK1) [µM] | IRAK4/HPK1 Ratio (HPK1) | IC50 (IRAK4) [µM]
CC1(C)OC(=O)c2ccc(Nc3ncc(-c4nnc(-c5ccccn5)o4)c(N[C@H](CO)c4ccccc4)n3)cc21 [Example 66, 5-[(4-{[(1S)-2-hydroxy-1-phenylethyl]amino}-5-[5-(pyridin-2-yl)-1,3,4-oxadiazol-2-yl]pyrimidin-2-yl)amino]-3,3-dimethyl-1,3-dihydro-2-benzofuran-1-one] | 0.05 to 0.25 | B (B=10 to 50) | 0.25 to 1
CC1(C)OC(=O)c2ccc(Nc3ncc(C(=O)NCc4ccccn4)c(N[C@H](CO)c4ccccc4)n3)cc21 [Example 6, 2-[(3,3-dimethyl-1-oxo-1,3-dihydro-2-benzofuran-5-yl)amino]-4-{[(1S)-2-hydroxy-1-phenylethyl]amino}-N-[(pyridin-2-yl)methyl]pyrimidine-5-carboxamide] | < 0.05 | B (B=10 to 50) | 0.05 to 0.25
CC1(C)OC(=O)c2ccc(Nc3ncc(C(=O)NNC(=O)C(C)(O)C(F)(F)F)c(N[C@H](CO)c4ccccc4)n3)cc21 (stereo partly drawn) [Example 64, 2-[(3,3-dimethyl-1-oxo-1,3-dihydro-2-benzofuran-5-yl)amino]-4-{[(1S)-2-hydroxy-1-phenylethyl]amino}-N′-(3,3,3-trifluoro-2-hydroxy-2-methylpropanoyl)pyrimidine-5-carbohydrazide] | 0.05 to 0.25 | B (B=10 to 50) | 0.25 to 1
CC1(C)OC(=O)c2ccc(Nc3ncc(C(=O)NNC(=O)c4cccnc4)c(N[C@H](CO)c4ccccc4)n3)cc21 [Example 56, N′-{2-[(3,3-dimethyl-1-oxo-1,3-dihydro-2-benzofuran-5-yl)amino]-4-{[(1S)-2-hydroxy-1-phenylethyl]amino}pyrimidine-5-carbonyl}pyridine-3-carbohydrazide] | < 0.05 | B (B=10 to 50) | 0.25 to 1
CC(C)(O)c1ccccc1CNc1nc(Nc2ccc3c(c2)C(C)(C)OC3=O)ncc1-c1nc(C2CC2)no1 [Example 73, 5-{[5-(3-cyclopropyl-1,2,4-oxadiazol-5-yl)-4-({[2-(2-hydroxypropan-2-yl)phenyl]methyl}amino)pyrimidin-2-yl]amino}-3,3-dimethyl-1,3-dihydro-2-benzofuran-1-one] | 0.05 to 0.25 | B (B=10 to 50) | 0.25 to 1
CCOC(=O)c1cnc(Nc2ccc3c(c2)C(C)(C)OC3=O)nc1NCCC(C)(C)N [Example 76, Ethyl 4-[(3-amino-3-methylbutyl)amino]-2-[(3,3-dimethyl-1-oxo-1,3-dihydro-2-benzofuran-5-yl)amino]pyrimidine-5-carboxylate] | 0.05 to 0.25 | B (B=10 to 50) | 0.25 to 1
CN(C)CCCNC(=O)c1cnc(Nc2ccc3c(c2)C(C)(C)OC3=O)nc1N[C@H](CO)c1ccccc1 [Example 5, 2-[(3,3-dimethyl-1-oxo-1,3-dihydro-2-benzofuran-5-yl)amino]-N-[3-(dimethylamino)propyl]-4-{[(1S)-2-hydroxy-1-phenylethyl]amino}pyrimidine-5-carboxamide] | < 0.05 | B (B=10 to 50) | 0.25 to 1
CC1(C)OC(=O)c2ccc(Nc3ncc(-c4nnc(C5(C(F)(F)F)CC5)o4)c(N[C@H](CO)c4ccccc4)n3)cc21 [Example 68, 5-[(4-{[(1S)-2-hydroxy-1-phenylethyl]amino}-5-{5-[1-(trifluoromethyl)cyclopropyl]-1,3,4-oxadiazol-2-yl}pyrimidin-2-yl)amino]-3,3-dimethyl-1,3-dihydro-2-benzofuran-1-one] | < 0.05 | B (B=10 to 50) | 0.25 to 1
CC(C)(CCCCO)c1noc(-c2cnc(Nc3ccc4c(c3)C(C)(C)OC4=O)nc2N[C@H](CO)c2ccccc2)n1 [Example 37, 5-[(4-{[(1S)-2-hydroxy-1-phenylethyl]amino}-5-[3-(6-hydroxy-2-methylhexan-2-yl)-1,2,4-oxadiazol-5-yl]pyrimidin-2-yl)amino]-3,3-dimethyl-1,3-dihydro-2-benzofuran-1-one] | < 0.05 | C (C=>50) | 0.25 to 1
CCCc1noc(-c2cnc(Nc3ccc4c(c3)C(C)(C)OC4=O)nc2N[C@H](CO)c2ccccc2)n1 [Example 35, 5-[(4-{[(1S)-2-hydroxy-1-phenylethyl]amino}-5-(3-propyl-1,2,4-oxadiazol-5-yl)pyrimidin-2-yl)amino]-3,3-dimethyl-1,_3-dihydro-2-benzofuran-1-one] | < 0.05 | C (C=>50) | 0.25 to 1
CC1(C)OC(=O)c2ccc(Nc3ncc(-c4nc(-c5ccccn5)no4)c(N[C@H](CO)c4ccccc4)n3)cc21 [Example 42, 5-[(4-{[(1S)-2-hydroxy-1-phenylethyl]amino}-5-[3-(pyridin-2-yl)-1,2,4-oxadiazol-5-yl]pyrimidin-2-yl)amino]-3,3-dimethyl-1,3-dihydro-2-benzofuran-1-one] | < 0.05 | C (C=>50) | 0.25 to 1
CC1(C)OC(=O)c2ccc(Nc3ncc(-c4nc(C5CCOCC5)no4)c(N[C@H](CO)c4ccccc4)n3)cc21 [Example 33, 5-[(4-{[(1S)-2-hydroxy-1-phenylethyl]amino}-5-[3-(oxan-4-yl)-1,2,4-oxadiazol-5-yl]pyrimidin-2-yl)amino]-3,3-dimethyl-1,3-dihydro-2-benzofuran-1-one] | < 0.05 | C (C=>50) | 0.05 to 0.25
